# Reference: the supplement of paper PMC10307832
# Assays:
# Experiment in all cases: relative viability (nuclei count vs DMSO), 5 days (fraction); higher = more cells survive
# [1] = compound: CCC1=CN=CN=C1N2CCN(CC2)CC3=NC4=C(N3)C=C(C=C4)C(F)(F)F + CC(=O)Nc1cccc(-n2c(=O)n(C3CC3)c(=O)c3c(Nc4ccc(I)cc4F)n(C)c(=O)c(C)c32)c1 [Trametinib] (partner 0.02 µM)
# In short: (§1)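 Lung cancer cell lines were seeded in 1536-well plates and dosed by pin tool the next day, with either a single drug or a fixed anchor-drug dose combined with five library-drug doses (not always all listed) spaced in √10 steps. Five days later, one step fixed the cells and stained their nuclei (final 0.05% Triton X-100, 1% formaldehyde, 1 ug/ml Hoechst), and nuclei were counted on 4× images. Relative viability is the nuclei count in treated wells divided by the count in vehicle wells, and each value is the median of duplicate plates.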
# [2] = compound: CCC1=CN=CN=C1N2CCN(CC2)CC3=NC4=C(N3)C=C(C=C4)C(F)(F)F + C[C@@H](Oc1cc(-c2cnn(C3CCNCC3)c2)cnc1N)c1c(Cl)ccc(F)c1Cl [Crizotinib] (partner 1 µM)
# In short: as §1
# [3] = compound: CCn1c(-c2nonc2N)nc2cnc(Oc3cccc(NC(=O)c4ccc(OCCN5CCOCC5)cc4)c3)cc21 + CS(=O)(=O)N1CCN(Cc2cc3nc(-c4cccc5[nH]ncc45)nc(N4CCOCC4)c3s2)CC1 [Pictilisib] (partner 1 µM)
# In short: as §1
# [4] = compound: CCn1c(-c2nonc2N)nc2cnc(Oc3cccc(NC(=O)c4ccc(OCCN5CCOCC5)cc4)c3)cc21 + O=C(c1cc(Cc2n[nH]c(=O)c3ccccc23)ccc1F)N1CCN(C(=O)C2CC2)CC1 [Olaparib] (partner 8 µM)
# In short: as §1
Cell Line,relative viability ([1]; first compound 0.04 µM),relative viability ([1]; first compound 0.1265 µM),relative viability ([1]; first compound 0.4 µM),relative viability ([1]; first compound 1.265 µM),relative viability ([1]; first compound 4 µM),relative viability ([2]; first compound 0.04 µM),relative viability ([2]; first compound 0.1265 µM),relative viability ([2]; first compound 0.4 µM),relative viability ([2]; first compound 1.265 µM),relative viability ([2]; first compound 4 µM),relative viability ([3]; first compound 0.04 µM),relative viability ([3]; first compound 0.1265 µM),relative viability ([3]; first compound 0.4 µM),relative viability ([3]; first compound 1.265 µM),relative viability ([3]; first compound 4 µM),relative viability ([4]; first compound 0.04 µM),relative viability ([4]; first compound 0.1265 µM),relative viability ([4]; first compound 0.4 µM),relative viability ([4]; first compound 1.265 µM),relative viability ([4]; first compound 4 µM)
SW 1573,0.652,0.58,0.513,0.47,0.497,0.81,0.833,0.968,0.834,0.922,0.545,0.507,0.492,0.487,0.312,0.594,0.4,0.287,0.24,0.183
LOU-NH91,0.782,0.768,0.789,0.727,0.817,0.695,0.696,0.761,0.779,0.801,0.61,0.613,0.484,0.475,0.495,0.919,0.756,0.665,0.494,0.534
LXF-289,0.709,0.696,0.659,0.684,0.67,0.823,0.754,0.825,0.781,0.87,0.923,0.761,0.539,0.56,0.516,1.07,1.22,1.01,1.12,0.984
NCI-H1299,–,–,–,–,–,0.935,0.953,0.953,0.96,0.981,0.956,0.735,0.74,0.618,0.393,0.975,0.958,0.867,0.712,0.52
HARA,0.879,0.76,0.454,0.472,0.716,1.06,0.972,1.01,1.03,1.18,0.345,0.345,0.157,0.148,0.0855,0.607,0.965,0.654,0.294,0.139
LU99A,0.558,0.57,0.505,0.481,0.578,0.543,0.53,0.541,1,1.09,0.392,0.322,0.192,0.317,0.214,0.313,0.299,0.262,0.256,0.244
201T,0.725,0.73,0.747,0.711,0.694,0.985,0.993,1.03,1.02,1.12,0.732,0.67,0.586,0.631,0.743,0.859,0.933,0.817,0.812,0.769
HCC-827,0.483,0.51,0.544,0.497,0.553,0.89,0.903,0.945,0.973,0.917,1.08,1.06,1.09,0.824,0.933,0.686,0.693,0.698,0.501,0.509
NCI-H1666,0.892,0.825,0.877,0.879,0.792,0.974,0.916,1.1,0.849,1.03,0.527,0.409,0.499,0.329,0.246,0.718,0.863,0.702,0.717,0.551
NCI-H1915,0.286,0.337,0.293,0.248,0.287,0.916,0.878,0.85,0.934,1.03,1.01,0.971,0.908,0.648,0.64,0.252,0.265,0.251,0.185,0.167
NCI-H2009,0.346,0.299,0.281,0.182,0.246,1.06,1.05,1.07,1.05,1.03,0.971,0.774,0.629,0.461,0.348,0.605,0.566,0.549,0.486,0.334
ChaGo-K-1,0.93,0.894,0.821,0.869,0.859,–,1.15,1.21,1.12,1.16,1.13,0.652,0.507,–,0.425,0.512,0.443,0.443,0.399,0.387
COR-L 105,0.42,0.418,0.501,0.416,0.44,0.861,0.795,0.972,0.922,1.24,0.361,0.368,0.277,0.17,0.249,0.631,0.617,0.699,0.554,0.457
NCI-H2170,0.946,0.911,0.873,0.777,0.851,1.12,1.18,1.2,1.27,1.49,0.279,0.27,0.229,0.247,0.258,0.629,0.661,0.629,0.549,0.415
A549,–,–,–,–,–,0.734,0.801,0.816,0.829,0.827,0.801,0.408,0.436,0.139,0.0926,0.499,0.343,0.122,0.0557,0.102
NCI-H1975,0.36,0.342,0.319,0.309,0.422,1.08,0.983,0.968,1.11,1.04,0.253,0.192,0.157,0.143,0.148,0.9,0.772,0.623,0.389,0.271
Calu-6,–,–,–,–,–,0.742,0.707,0.832,0.905,0.982,1.06,0.808,0.797,0.54,0.403,0.569,0.528,0.541,0.381,0.328
NCI-H1648,0.555,–,–,0.391,0.519,–,–,–,–,–,–,–,–,–,–,0.604,0.577,1.35,1.26,1.5
NCI-H322M,0.483,0.611,0.537,0.458,0.62,0.956,0.868,0.918,0.896,1.37,0.579,0.541,0.581,0.693,0.591,1.14,1.01,0.935,0.661,0.702

Cell Line,relative viability ([1]; first compound 0.04 µM),relative viability ([1]; first compound 0.1265 µM),relative viability ([1]; first compound 0.4 µM),relative viability ([1]; first compound 1.265 µM),relative viability ([1]; first compound 4 µM),relative viability ([2]; first compound 0.04 µM),relative viability ([2]; first compound 0.1265 µM),relative viability ([2]; first compound 0.4 µM),relative viability ([2]; first compound 1.265 µM),relative viability ([2]; first compound 4 µM),relative viability ([3]; first compound 0.04 µM),relative viability ([3]; first compound 0.1265 µM),relative viability ([3]; first compound 0.4 µM),relative viability ([3]; first compound 1.265 µM),relative viability ([3]; first compound 4 µM),relative viability ([4]; first compound 0.04 µM),relative viability ([4]; first compound 0.1265 µM),relative viability ([4]; first compound 0.4 µM),relative viability ([4]; first compound 1.265 µM),relative viability ([4]; first compound 4 µM)
NCI-H2405,0.676,0.666,0.624,–,0.68,0.847,0.867,0.855,–,1.02,0.454,0.23,0.15,0.261,0.171,0.883,0.57,0.341,0.258,0.287
HCC-44,1.06,0.994,1.02,0.963,0.915,0.83,0.774,0.874,0.762,0.843,0.557,0.529,0.276,0.236,0.244,1.07,0.996,0.945,0.999,0.802
HCC-78,0.843,0.712,0.628,0.577,0.562,0.304,0.3,0.345,0.322,0.379,0.3,0.311,0.208,0.262,0.367,0.789,0.97,–,0.832,0.946
COR-L23,0.569,0.682,0.524,0.47,0.583,0.58,0.621,0.66,0.694,0.975,1.02,0.68,0.238,0.197,0.192,0.346,0.301,0.269,0.145,0.124
NCI-H1993,0.493,0.658,0.552,0.549,0.644,0.835,0.813,0.883,0.873,0.856,0.885,0.855,–,0.625,0.712,1.06,1,1.06,1.13,0.849
NCI-H3122,0.19,0.248,0.201,0.219,0.184,0.262,0.264,0.318,0.531,0.469,0.879,0.672,0.516,0.674,0.542,0.697,0.618,0.643,0.607,0.592
NCI-H2228,–,0.471,0.397,0.221,0.586,0.474,0.586,0.417,0.428,0.524,0.607,0.3,0.229,0.605,0.254,1.13,0.742,0.776,0.671,0.544
NCI-H1944,0.519,0.406,0.4,0.324,0.352,1.21,0.988,1.13,–,1.23,0.373,0.341,–,0.269,0.307,0.42,0.419,0.358,0.386,0.327
NCI-H2342,0.748,0.906,0.826,0.503,0.511,–,–,–,–,–,–,–,–,–,–,0.439,0.508,0.469,0.368,0.361
ABC-1,–,–,–,–,–,1.09,1.04,1.38,1.11,0.852,1.34,0.599,0.494,0.442,0.401,0.632,0.589,0.74,0.386,0.458
NCI-H1563,–,–,–,–,–,0.822,0.847,0.928,0.962,1.09,0.629,0.678,0.638,0.66,0.569,–,–,–,–,–
NCI-H522,0.797,0.848,0.761,0.692,0.795,–,–,–,–,–,–,–,–,–,–,0.661,0.614,0.665,0.514,0.554
NCI-H1793,0.459,0.4,0.397,0.362,0.349,–,–,–,–,–,0.336,0.413,0.295,0.312,0.328,0.824,0.994,0.756,0.52,0.363
SW 900,0.545,0.679,0.857,–,0.7,–,–,–,–,–,–,–,–,–,–,0.899,0.924,1.13,0.826,0.694
EBC-1,–,–,–,–,–,0.186,0.169,0.218,0.196,0.169,0.355,0.319,0.35,0.31,0.332,0.777,0.716,0.637,0.492,0.535
IA-LM,–,–,–,–,–,0.907,0.763,0.94,0.669,0.759,0.751,0.538,0.634,0.733,0.674,0.967,0.834,0.791,0.796,0.765
NCI-H1703,–,–,–,–,–,1.07,0.697,0.775,0.858,1.23,0.242,0.312,0.206,0.215,0.188,0.469,0.452,0.675,0.333,0.303
NCI-H1395,1.05,0.993,1.11,–,0.96,–,–,–,–,–,0.795,0.508,0.491,0.384,0.536,0.384,0.41,0.401,0.374,0.352
